Consider 3 compounds from patent US8748435B2, “Pyrazolo pyrimidine derivatives” (Novartis AG, priority 2011, dated 2014).

Structures are written as SMILES. Structures can show the parent of a compound that is named as a salt. Some results are limits rather than exact numbers.

In test [1] the target is mouse GPR4 (Mus musculus (Mouse), UniProt Q8BUD0). Nature of the test: Mouse GPR4 cAMP assay. The class given is cell-based. In general terms: cAMP levels reflect the balance of adenylyl cyclase and phosphodiesterase activity.
In test [2] the target is T1, human GPR4 (Homo sapiens (Human), UniProt P46093). Briefly: Cell-based assay for human GPR4 activity (pH-induced cAMP formation, HTRF, HeLa cells). To be noted: HeLa cells stably expressing human GPR4, pH-induced cAMP.
Test [3] concerns VEGF-induced angiogenesis. Briefly: GPR4 activity in VEGF-induced angiogenesis in mice (growth factor implant model). Type of test: in vivo. The conditions noted are these: po 30 mg/kg bid, day 4 after chamber implantation. As to the method:
d) GPR4 Activity in VEGF-Induced Angiogenesis in Mice
The functional activity of GPR4 was determined in the angiogenesis growth factor implant model. Porous tissue chambers made of perfluoro-alkoxy-Teflon were filled with 0.8% agar and 20 U/ml heparin supplemented with or without 8 μg/ml recombinant human VEGF. The solutions were maintained at 39° C. prior to the filling procedure. Mice were anesthetized using 3% isoflurane inhalation. For subcutaneous implantation, a small skin incision was made at the base of the tail to allow the insertion of an implant trocar. The chamber was implanted under aseptic conditions through the small incision onto the back of the animal. The skin incision was closed by wound clips. The compounds were applied po at 30 mg/kg bid starting at the day of the chamber implantation.
On the 4th day after implantation, animals were sacrificed using CO2. Chambers were excised and the vascularized fibrous tissue formed around each implant carefully removed and weighed and expressed as Δ tissue weight % [((compound/VEGF)−(no compound/no VEGF))/((no compound/VEGF)−no compound/no VEGF))×100]. Body weight was used to monitor the general condition of the mice.

Test [4] concerns the target rat GPR4 (Rattus norvegicus (Rat), UniProt Q4KLH9). Briefly: Rat GPR4 cAMP assay. Type of test: cell-based. To be noted: read-out: r cAMP IC50.
Test [5] has as its target Human H3 (Homo sapiens (Human), UniProt Q9Y5N1). Briefly: Human H3 binding assay (SPA, [3H]-R-alpha-Methylhistamine). The conditions noted are these: 3 nM [3H]-R-alpha-Methylhistamine.
Test [6] concerns the target T1, human GPR4. Nature of the test: Human GPR4 binding assay with additional human serum albumin (4% HSA). The conditions noted are these: binding assay with 4% HSA.
The target in test [7] is T1, human GPR4. Nature of the test: Human GPR4 binding assay ([3H]4 radioligand, membranes of 300.19 cells expressing human GPR4). To be noted: radioligand [3H]4 (example 39), membranes of 300.19 cells expressing human GPR4.
Test [8] relates to CFA-induced hyperalgesia. Nature of the test: Established rat hyperalgesia model (CFA). The class given is in vivo. To be noted: gavage. As to the method: f) Established Rat Hyperalgesia Model
Naïve withdrawal thresholds of both hind paws were determined by using an increasing pressure stimulus placed onto the dorsal surface of each paw using an analgesymeter. Delayed inflammatory pain was then induced by intra-plantar injection of 25 μl of complete Freund's adjuvant (CFA) into one hindpaw with the contralateral paw acting as the control. […] One hour later, paw withdrawal thresholds were re-measured on both the ipsilateral (CFA-injected) and contralateral (uninjected) paw; measurements were repeated at 3 hrs and 6 hrs post dosing. The reversal of hyperalgesia was calculated using the following formula: Reversal (%)=100×(postdose ipsilateral threshold−predose ipsilateral threshold) (naïve ipsilateral threshold−predose ipsilateral threshold).

The subject of test [9] is antigen-induced arthritis (knee swelling). Briefly: Rat antigen-induced arthritis model. Type of test: in vivo. To be noted: oral gavage, AUC of R/L knee swelling ratio vs control. As to the method: e) GPR4 Activity in Rat Antigen-induced Arthritis Model Female Lewis rats were sensitised intradermally on the back at two sites to methylated bovine serum albumin (mBSA) homogenised 1:1 with complete Freund's adjuvant on days −21 and −14 (0.1 ml containing 1 mg/ml mBSA). On day 0, the right knee received […] of 10 mg/ml mBSA in 5% glucose solution (antigen injected knee), while the left knee received […] of 5% glucose solution alone (vehicle injected knee). The diameters of the left and right knees were then measured using calipers immediately after the intra-articular injections and again on days 2, 4 and 7. The compounds of the invention were administered twice daily by oral gavage; vehicle (saline) at 5 ml/kg, and dexamethasone at 0.3 mg/kg was given as a control. Right knee swelling was calculated as a ratio of left knee swelling, and the R/L knee swelling ratio plotted against time to give Area Under the Curve (AUC) graphs for control and treatment groups. The percentage inhibition of the individual treatment group AUCs were calculated vs the control group AUC (0% inhibition).

T1 sequence (P46093 whole entry): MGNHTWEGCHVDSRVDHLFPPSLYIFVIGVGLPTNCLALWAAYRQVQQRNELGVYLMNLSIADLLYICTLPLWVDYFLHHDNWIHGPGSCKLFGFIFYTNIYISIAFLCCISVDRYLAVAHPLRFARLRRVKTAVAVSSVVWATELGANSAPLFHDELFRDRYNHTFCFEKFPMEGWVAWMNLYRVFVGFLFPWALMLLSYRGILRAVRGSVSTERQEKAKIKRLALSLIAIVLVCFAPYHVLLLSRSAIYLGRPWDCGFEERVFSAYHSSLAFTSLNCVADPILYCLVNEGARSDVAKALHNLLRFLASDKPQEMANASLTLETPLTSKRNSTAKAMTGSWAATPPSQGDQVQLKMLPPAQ
Chain of rat GPR4 (Q4KLH9 whole entry): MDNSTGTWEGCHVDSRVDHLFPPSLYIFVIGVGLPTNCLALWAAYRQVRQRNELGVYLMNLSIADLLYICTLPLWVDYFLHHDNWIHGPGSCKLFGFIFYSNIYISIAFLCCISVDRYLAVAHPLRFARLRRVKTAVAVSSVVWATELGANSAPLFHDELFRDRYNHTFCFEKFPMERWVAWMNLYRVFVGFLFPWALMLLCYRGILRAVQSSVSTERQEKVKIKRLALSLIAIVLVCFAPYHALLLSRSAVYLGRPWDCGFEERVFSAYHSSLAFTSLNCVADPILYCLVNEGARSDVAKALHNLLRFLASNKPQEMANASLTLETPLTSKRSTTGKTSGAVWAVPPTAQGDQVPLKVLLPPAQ
Chain of mouse GPR4 (Q8BUD0 whole entry): as the sequence (Q4KLH9 whole entry) above, with W8G, R51H, T339S counted along it
Chain of Human H3 (Q9Y5N1 whole entry): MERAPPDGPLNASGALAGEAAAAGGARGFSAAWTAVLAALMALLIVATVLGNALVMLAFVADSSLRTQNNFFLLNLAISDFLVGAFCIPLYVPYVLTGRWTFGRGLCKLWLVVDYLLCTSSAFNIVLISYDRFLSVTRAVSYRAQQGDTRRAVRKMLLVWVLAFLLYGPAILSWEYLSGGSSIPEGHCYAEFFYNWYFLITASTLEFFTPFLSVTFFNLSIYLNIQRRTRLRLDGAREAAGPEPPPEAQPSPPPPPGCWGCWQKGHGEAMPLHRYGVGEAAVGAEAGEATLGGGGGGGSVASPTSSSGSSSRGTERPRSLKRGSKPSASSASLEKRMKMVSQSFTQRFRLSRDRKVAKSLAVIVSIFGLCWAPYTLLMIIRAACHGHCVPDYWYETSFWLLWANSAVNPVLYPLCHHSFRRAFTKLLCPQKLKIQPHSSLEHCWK

As for `CCc1nn2c(C)cc(C)nc2c1Cc1ccc(/C=C/CN2CCN[C@@H](C)C2)cc1` [Example 9, 2-Ethyl-5,7-dimethyl-3-{4-[(E)-3-((S)-3-methyl-piperazin-1-yl)-propenyl]-benzyl}-pyrazolo[1,5-a]pyrimidine], the IC50 amounted to 890 nM in test [1]; 59 nM in test [2]; 1440 nM in [4]; 18 µM in [5]; 6 nM in [6]; 19 nM in test [7]. This compound yielded a Δ tissue weight in test [3] of 44%.
Regarding `CCc1nn2c(C)cc(C)nc2c1Cc1ccc(-c2nnc(C3CCNCC3)o2)cc1` [Example 35, 2-Ethyl-5,7-dimethyl-3-[4-(5-piperidin-4-yl-[,3,4]oxadiazol-2-yl)-benzyl]-pyrazolo[1,5-a]pyrimidine], in test [3], the Δ tissue weight was found to be 49%. Moreover, the “% reversal of hyperalgesia” value is on record as 36% in [8] (3 mg/kg, 1 h); 25% in [8] (3 mg/kg, 3 h); 5% in test [8] (3 mg/kg, 6 h); 43% in test [8] (10 mg/kg, 1 h); 36% in [8] (10 mg/kg, 3 h); 15% in test [8] (10 mg/kg, 6 h). The “% reversal of hyperalgesia” value in test [8] (30 mg/kg, 1 h) was 62%; in test [8] (30 mg/kg, 3 h), 47%; in [8] (30 mg/kg, 6 h) it was 25%. For the same compound, the Inhibition of swelling in [9] (30 mg/kg bid) is listed as 26%; in [9] (60 mg/kg bid) it was 34%; in test [9] (90 mg/kg bid) it was 40%.
`CCc1nn2c(C)cc(C)nc2c1Cc1ccc(/C=C/CN2CCN[C@H](CO)C2)cc1` [Example 8, ((S)-4-{(E)-3-[4-(2-Ethyl-5,7-dimethyl-pyrazolo[1,5-a]pyrimidin-3-ylmethyl)-phenyl]-allyl}-piperazin-2-yl)-methanol dihydrochloride]: the IC50 was 378 nM in [1]; 34 nM in test [2]; 670 nM in [4]; above 30 µM in test [5]; 51 nM in test [6]; 28 nM in test [7]. Also, the Inhibition of swelling in test [9] (90 mg/kg bid) came to 30%.

As a reminder, the IC50 is the midpoint of a concentration-inhibition curve.
